We go through 5 compounds from PubChem BioAssay AID1259411 (Chemical Carcinogenesis Research Information System (CCRIS), 2018).

This data set concerns rodent carcinogenicity bioassays, tumor incidence. Put plainly: CCRIS carcinogenicity studies. The settings on record: Dose: 0, Dose: 0. In short, it runs like this:
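Archive of carcinogenicity, mutagenicity, tumor promotion and tumor inhibition results drawn from journals, NCI reports and other sources, expert-reviewed; covers 1985-2011 and is no longer updated.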

The structures appear in SMILES notation. Active and inactive are the calls of the source. The rule behind the calls is not given here.

On to `c1cc(OCC2CO2)cc(OCC2CO2)c1` (stereo unspecified), for which the carcinogen call runs as follows: (Species: MOUSE, Strain/Sex: B6C3F1/FEMALE, Route: GAVAGE, 50, 100 MG/KG BW IN CORN OIL 5 D/WK FOR 103 WK (STUDY DURATION: 105 WK), 50, 100 MG/KG BW IN CORN OIL 5 D/WK FOR 103 WK (STUDY DURATION: 105 WK), Tumor Site: Type of Lesion: FORESTOMACH: SQUAMOUS CELL CARCINOMA, SQUAMOUS CELL PAPILLOMA) “active; positive”; (Species: MOUSE, Strain/Sex: B6C3F1/FEMALE, Route: GAVAGE, 50, 100 MG/KG IN CORN OIL 5 D/WK FOR 103 WK (STUDY DURATION: 104-105 WK), 50, 100 MG/KG IN CORN OIL 5 D/WK FOR 103 WK (STUDY DURATION: 104-105 WK), Tumor Site: Type of Lesion: FORESTOMACH: SQUAMOUS CELL PAPILLOMA, SQUAMOUS CELL CARCINOMA) “active; positive”; (Species: MOUSE, Strain/Sex: B6C3F1/MALE, Route: GAVAGE, 50, 100 MG/KG BW IN CORN OIL 5 D/WK FOR 103 WK (STUDY DURATION: 105 WK), 50, 100 MG/KG BW IN CORN OIL 5 D/WK FOR 103 WK (STUDY DURATION: 105 WK), Tumor Site: Type of Lesion: FORESTOMACH: SQUAMOUS CELL CARCINOMA, SQUAMOUS CELL PAPILLOMA) “active; positive”; (Species: MOUSE, Strain/Sex: B6C3F1/MALE, Route: GAVAGE, 50, 100 MG/KG IN CORN OIL 5 D/WK FOR 103 WK (STUDY DURATION: 104-105 WK), 50, 100 MG/KG IN CORN OIL 5 D/WK FOR 103 WK (STUDY DURATION: 104-105 WK), Tumor Site: Type of Lesion: FORESTOMACH: SQUAMOUS CELL PAPILLOMA, SQUAMOUS CELL CARCINOMA) “active; positive”; (Species: RAT, Strain/Sex: F344/FEMALE, Route: GAVAGE, 12, 25, 50 MG/KG BW IN CORN OIL 5 D/WK FOR 103 WK (STUDY DURATION: 105 WK), 12, 25, 50 MG/KG BW IN CORN OIL 5 D/WK FOR 103 WK (STUDY DURATION: 105 WK), Tumor Site: Type of Lesion: FORESTOMACH: SQUAMOUS CELL CARCINOMA, SQUAMOUS CELL PAPILLOMA) “active; positive”; (Species: RAT, Strain/Sex: F344/FEMALE, Route: GAVAGE, 12, 25, 50 MG/KG IN CORN OIL 5 D/WK FOR 103 WK (STUDY DURATION: 104-105 WK), 12, 25, 50 MG/KG IN CORN OIL 5 D/WK FOR 103 WK (STUDY DURATION: 104-105 WK), Tumor Site: Type of Lesion: FORESTOMACH: SQUAMOUS CELL PAPILLOMA, SQUAMOUS CELL CARCINOMA) “active; positive”. The carcinogen call is, setting by setting: (Species: RAT, Strain/Sex: F344/MALE, Route: GAVAGE, 12, 25, 50 MG/KG IN CORN OIL 5 D/WK FOR 103 WK (STUDY DURATION: 104-105 WK), 12, 25, 50 MG/KG IN CORN OIL 5 D/WK FOR 103 WK (STUDY DURATION: 104-105 WK), Tumor Site: Type of Lesion: FORESTOMACH: SQUAMOUS CELL PAPILLOMA, SQUAMOUS CELL CARCINOMA) “active; positive”; (Species: RAT, Strain/Sex: F344/MALE, Route: GAVAGE, 12, 25, 50 MG/KG IN CORN OIL 5 D/WK FOR 103 WK (STUDY DURATION: 105 WK), 12, 25, 50 MG/KG IN CORN OIL 5 D/WK FOR 103 WK (STUDY DURATION: 105 WK), Tumor Site: Type of Lesion: FORESTOMACH: SQUAMOUS CELL CARCINOMA, SQUAMOUS CELL PAPILLOMA) “active; positive”.

For `Cn1c(=O)c2c(ncn2C)n(C)c1=O`, the carcinogen call is “inactive; negative” (Species: RAT, Strain/Sex: SPRAGUE-DAWLEY/FEMALE, Route: ORAL, 200, 430, 930, 2000 MG/L IN DRINKING WATER FOR 24 MO (STUDY DURATION: 2 YR), 200, 430, 930, 2000 MG/L IN DRINKING WATER FOR 24 MO (STUDY DURATION: 2 YR)); “inactive; negative” (Species: RAT, Strain/Sex: SPRAGUE-DAWLEY/MALE, Route: ORAL, 200, 430, 930, 2000 MG/L IN DRINKING WATER FOR 24 MO (STUDY DURATION: 2 YR), 200, 430, 930, 2000 MG/L IN DRINKING WATER FOR 24 MO (STUDY DURATION: 2 YR)); “inactive; negative” (Species: RAT, Strain/Sex: WISTAR/MALE,FEMALE, Route: ORAL, 0.1, 0.2% SOLN. IN DRINKING WATER FOR 78 WK, 0.1, 0.2% SOLN. IN DRINKING WATER FOR 78 WK).

In the case of `CC(C)CCC[C@@H](C)[C@H]1CC[C@H]2[C@@H]3CC=C4C[C@@H](OC(=O)Cc5ccc(N(CCCl)CCCl)cc5)CC[C@]4(C)[C@H]3CC[C@]12C`, the carcinogen call is “active; positive” (Species: MOUSE, Strain/Sex: B6C3F1/FEMALE, Route: GAVAGE, 7, 15, 30 MG/KG 3/WK FOR 52-88 WK (STUDY DURATION: 62-104 WK), 7, 15, 30 MG/KG 3/WK FOR 52-88 WK (STUDY DURATION: 62-104 WK), Tumor Site: Type of Lesion: LUNG: ALVEOLAR/BRONCHIOLAR ADENOMA, CARCINOMA, MYOCARDIUM: SARCOMA, OVARIES: TUBULAR ADENOMA, HEMATOPOIETIC SYSTEM (LEUK, Tumor Site: Type of Lesion: LUNG: ALVEOLAR/BRONCHIOLAR ADENOMA, CARCINOMA, MYOCARDIUM: SARCOMA, OVARIES: TUBULAR ADENOMA, HEMATOPOIETIC SYSTEM (LEUK); “active; positive” (Species: MOUSE, Strain/Sex: B6C3F1/MALE, Route: GAVAGE, 7, 15, 30 MG/KG 3/WK FOR 52-102 WK (STUDY DURATION: 74-104 WK), 7, 15, 30 MG/KG 3/WK FOR 52-102 WK (STUDY DURATION: 74-104 WK), Tumor Site: Type of Lesion: LUNG: ALVEOLAR/BRONCHIOLAR ADENOMA, CARCINOMA, HEMATOPOIETIC SYSTEM (LEUKEMIA), LYMPHATIC SYSTEM: LYMPHOMA, MYOCARDIUM:, Tumor Site: Type of Lesion: LUNG: ALVEOLAR/BRONCHIOLAR ADENOMA, CARCINOMA, HEMATOPOIETIC SYSTEM (LEUKEMIA), LYMPHATIC SYSTEM: LYMPHOMA, MYOCARDIUM:); “active; positive” (Species: RAT, Strain/Sex: SPRAGUE-DAWLEY/FEMALE, Route: GAVAGE, 5, 10 MG/KG 3/WK FOR 52 WKS (STUDY DURATION: 84-85 WK), 5, 10 MG/KG 3/WK FOR 52 WKS (STUDY DURATION: 84-85 WK), Tumor Site: Type of Lesion: MAMMARY GLAND: ADENOCARCINOMA, FIBROADENOMA); “inactive; negative” (Species: RAT, Strain/Sex: SPRAGUE-DAWLEY/MALE, Route: GAVAGE, 5, 10 MG/KG 3/WK FOR 52 WK (STUDY DURATION: 84-85 WK), 5, 10 MG/KG 3/WK FOR 52 WK (STUDY DURATION: 84-85 WK)).

Turning to `CC(=O)CN(N=O)C(N)=O`, the carcinogen call (Species: RAT, Strain/Sex: F344/FEMALE, Route: GAVAGE, 8 MG/ML IN CORN OIL/ETHYL ACETATE (2:1) 2/WK FOR 30 WK (STUDY DURATION: LIFETIME), Tumor Site: Type of Lesion: KIDNEY MESENCHYME: TUMOR, THYROID: FOLLICULAR TUMOR) was “active; positive” and the carcinogen call (Species: RAT, Strain/Sex: F344/MALE, Route: GAVAGE, 8 MG/ML IN CORN OIL/ETHYL ACETATE (2:1) 2/WK FOR 30 WK (STUDY DURATION: LIFETIME), Tumor Site: Type of Lesion: LUNG: TUMOR, MESOTHELIUM: TUMOR, KIDNEY MESENCHYME: TUMOR, Tumor Site: Type of Lesion: LUNG: TUMOR, MESOTHELIUM: TUMOR, KIDNEY MESENCHYME: TUMOR) is “active; positive”.

For `Cc1ncc[nH]1`, the carcinogen call reads like this: (Species: MOUSE, Strain/Sex: B6C3F1/FEMALE, Route: ORAL (DIET), 625, 1250, 2500 PPM FOR 105 WKS (STUDY DURATION: 105 WKS), 625, 1250, 2500 PPM FOR 105 WKS (STUDY DURATION: 105 WKS), Tumor Site: Type of Lesion: LIVER: HEPATOCELLULAR ADENOMA) “active; positive”; (Species: MOUSE, Strain/Sex: B6C3F1/MALE, Route: ORAL (DIET), 625, 1250, 2500 PPM FOR 105 WKS (STUDY DURATION: 105 WKS), 625, 1250, 2500 PPM FOR 105 WKS (STUDY DURATION: 105 WKS), Tumor Site: Type of Lesion: LIVER: HEPATOCELLULAR ADENOMA OR CARCINOMA, THYROID: FOLLICULAR CELL ADENOMA) “active; positive”; (Species: RAT, Strain/Sex: F344/N/FEMALE, Route: ORAL (DIET), 1000, 2500, 5000 PPM FOR 106 WKS (STUDY DURATION: 106 WKS), 1000, 2500, 5000 PPM FOR 106 WKS (STUDY DURATION: 106 WKS), Tumor Site: Type of Lesion: THYROID: FOLLICULAR CELL ADENOMA OR CARCINOMA) “active; positive”; (Species: RAT, Strain/Sex: F344/N/MALE, Route: ORAL (DIET), 300, 1000, 3000 PPM FOR 106 WKS (STUDY DURATION: 106 WKS), 300, 1000, 3000 PPM FOR 106 WKS (STUDY DURATION: 106 WKS)) “inactive; negative”.
